The source of these data is US10583141B2, “N-substituted hydroxamic acids with carbon-based leaving groups as efficient HNO donors and uses thereof” (The Johns Hopkins University, priority 2015, dated 2020).

Series [1] in a line: pKa by titration with NaOH solution. In kind it is physicochemical. Conditions: 50% (v/v) aqueous ethanol. The protocol:
(§1) A UV-VIS protocol was used to determine the decomposition kinetics of compounds 1, 3, 5 and 6. According to this protocol, decomposition of Compound 5, was monitored by examining the growth of the distinctive absorbance of the pyrazolone byproduct (λ=265 nm) at pH 7.4 and 37° C. in phosphate buffer as a function of pH (Guthrie, D. A., Kim, N. Y., Siegler, M. A.; Moore, C. D., Toscano, J. P. J. Am. Chem. Soc. 2012, 134, 1962-1965; and Guthrie, D. A.; Ho, A.; Takahashi, C. G.; Collins, A., Morris, M.; Toscano, J. P. J. Org. Chem. 2015, 80, 1338-1348). The decomposition of rate is pH-dependent, and based on the experimental kinetic data, the pKa of Compound 5 was estimated to be 10.7. Following this protocol, the decomposition kinetics for compounds […] were determined. […] Thus, the pKa values of Compounds 1 (10.0) and 3 (9.1) in 50% (v/v) aqueous ethanol were measured by titration with NaOH solution.

A short description of series [2]: Nitroxyl (HNO) production via N2O quantification in the headspace (GC), relative to Angeli's salt. Conditions: N2O headspace analysis, 0.1 mM, 37° C. (SEM ± 5%; n = 3). An excerpt: Nitrous oxide (N2O) is produced via the dimerization and dehydration of HNO, and is the most common marker for nitroxyl production (Fukuto et al., Chem. Res. Toxicol. 18:790-801 (2005)). […] Using either nitrous oxide gas or Angeli's salt (“AS”) as a standard, the relative amounts of N2O released from compounds of the disclosure is examined via gas chromatography (“GC”) headspace analysis.
Another procedure for determining N2O released from compounds of the disclosure is as follows. A Varian CP-3800 instrument equipped with a 1041 injector, electron capture detector, and a 25 m 5 Å molecular sieve capillary column was applied for the analysis of nitrous oxide (N2O). Grade 5.0 nitrogen was used as both the carrier (8 mL/min) and the make-up (22 mL/min) gas. For all the measurements, the column oven temperature was kept constant at 150° C., and the injector oven and the detector oven were held at 200° C. and 300° C., respectively. A 100 μL gastight syringe with a sample-lock was used for all gas injections. Samples were prepared in 6 mL Wheaton Clr headspace vials with volumes pre-measured for sample uniformity (actual vial volume ranges from 5.8-6.3 mL). Vials were charged with 3 mL of phosphate buffer containing the metal chelator, diethylenetriaminepentaacetic acid (DTPA), and fit with rubber septa and 20 mm aluminum seals. The vials were purged with argon and equilibrated for at least 10 minutes at 37° C. in a dry block heater. A 10 mM stock solution of Angeli's salt (AS) was prepared in 10 mM sodium hydroxide, and compounds of the disclosure (10 mM) were prepared in acetonitrile and used immediately after preparation. 30 μL of the stock solutions was transferred into vials using a gastight syringe, yielding final concentrations of 0.1 mM. Substrates were then incubated long enough to ensure complete decomposition and equilibration of N2O with the headspace. For each sample, 60 μL of the headspace was sampled and injected three times using a gastight syringe with a sample lock. The N2O yield was averaged and reported relative to the standard, Angeli's salt. HNO yields were measured either at the half-life of the donor or after complete decomposition of the donor and are reported relative to the standard HNO donor, Angeli's salt, as determined by N2O headspace analysis (SEM±5%; n=3).

Series [3] in a line: Decomposition kinetics via UV-VIS protocol (growth of pyrazolone byproduct absorbance). It counts as physicochemical. Conditions: phosphate buffer; for decomposition (UV-VIS, in words): pH 7.4, 37° C. The protocol: as §1
Series [4] can be described thus: Stability (half-life of donor decomposition) via 1H NMR protocol. It counts as physicochemical. Conditions: 5 mM donor in 10% DMSO-d6, 10% D2O, 80% H2O, phosphate buffer (0.25M) with DTPA (0.2 mM), pH 7.4, 37° C., under argon. An excerpt: A ^1H NMR spectroscopy protocol was used to measure the half-life of donor decomposition by quantifying donor and the corresponding byproduct as a function of time (Guthrie, D. A.; Ho, A.; Takahashi, C. G.; Collins, A.; Morris, M.; Toscano, J. P. J. Org. Chem. 2015, 80, 1338-1348; and Guthrie, D. A.; Nourian, S.; Takahashi, C. G.; Toscano, J. P. J. Org. Chem. 2015, 80, 1349-1356). Based on distinctive chemical shifts of the compounds of the disclosure and their corresponding byproducts, the decomposition of the compounds of the disclosure and release of their byproduct was easily monitored. Utilizing this assay, the half-lives of particular compounds of the disclosure were determined under physiologically relevant conditions (Table 2).

Series [5] is described as follows: Stability in the presence of a pyrazolone by 1H NMR (mechanistic study). It counts as physicochemical. The protocol:
A ^1H NMR Spectroscopy Protocol was used to confirm the formation of nitroso carbonyls following decomposition of compound 5. In this protocol, 0.5 mM Compound 5 was incubated in the presence of 0.5 mM 3,4-dimethyl-N-phenylpyrazolone in 0.25 M phosphate buffer with 0.2 mM DTPA at pH 7.4, 80% H2O, 10% D2O, and 10% DMSO-d6 at 37° C. under argon. Spectra were collected at the start of the experiment and after complete decomposition.
To eliminate the possibility of direct attack of 3,4-dimethyl-1-phenyl-1H-pyrazol-5(4H)-one on the amidic nitrogen of hydroxamic acid moiety in Compound 1 through a SN2 reaction (Glover, S. A.; Rauk, A.; Buccigross, J. M.; Campbell. J. J.; Hammond, G. P.; Guoning, M.; Andrews. L. E.: Gillson, A. M. Can. J. Chem. 2005, 83, 1492-1509), the stability of Compound 11 in the presence of 4-(acetyl-O-methoxyoxime)-N-phenyl-3-methyl-pyrazolone was confirmed by ^1H NMR.

Setting [6] is: HNO yield at the half-life of the donor.
Setting [7] is: HNO yield after complete decomposition of the donor.

Molecules are shown by their SMILES. Marks after values point to notes of the source that are not given here. Bounds are passed on as bounds.

As a reminder, the pKa is the pH at which an ionisable group is half protonated. The half-life is the time in which the quantity being followed falls by half. High values mean slow decline, low ones rapid decline.

The compound `CO/N=C(\C)C1(N(O)C(C)=O)C(=O)N(c2ccccc2)N=C1C` (stereo not shown) [Compound 1, N-hydroxy-N-(4-(1-(methoxyimino)ethyl)-3-methyl-5-oxo-1-phenyl-4,5-dihydro-1H-pyrazol-4-yl)acetamide] gave a pKa in series [1] of 10. Besides, the “% HNO” value in series [2] (setting [6]) was 82^a %. For the same compound, in series [3], the “decomposition (UV-VIS, in words)” value is recorded as “stable for 1 hour”. In series [4], this compound had a half-life at 5 mM of 120 h.
Turning to `CC(=O)N(O)C1(C)C(=O)N(c2ccccc2)N=C1C` (stereo not shown) [Compound 11, N-hydroxy-N-(3,4-dimethyl-5-oxo-1-phenyl-4,5-dihydro-1H-pyrazol-4-yl)-acetamide], in series [5], the “stability in the presence of 4-(acetyl-O-methoxyoxime)-N-phenyl-3-methyl-pyrazolone” value is on record as “confirmed”.
For `CO/N=C(\C)C1(N(O)C(=O)OC)C(=O)N(C)N=C1C` (stereo not shown) [Compound 4, Methyl hydroxy(4-(1-(methoxyimino)ethyl)-1,3-dimethyl-5-oxo-4,5-dihydro-1H-pyrazol-4-yl)carbamate], the “% HNO” value in series [2] (setting [6]) is listed as 94^a %. In series [4], this compound gave a half-life at 5 mM of 96 h.
As for `CO/N=C(\C)C1(N(O)C(=O)N(C)C)C(=O)N(C)N=C1C` (stereo not shown) [Compound 6, 1-hydroxy-1-(4-(1-(methoxyimino)ethyl)-1,3-dimethyl-5-oxo-4,5-dihydro-1H-pyrazol-4-yl)-3,3-dimethylurea], the “% HNO” value in series [2] (setting [7]) is recorded as >95^b %. Moreover, in series [4], the half-life at 5 mM amounted to 0.767 h.
As for `CO/N=C(\C)C1(N(O)C(=O)N(C)C)C(=O)N(c2ccccc2)N=C1C` (stereo not shown) [Compound 5, 1-hydroxy-1-(4-(1-(methoxyimino)ethyl)-3-methyl-5-oxo-1-phenyl-4,5-dihydro-1H-pyrazol-4-yl)-3,3-dimethylurea], the “% HNO” value in series [2] (setting [7]) was >95^b %. Also, the pKa in series [3] (estimated from pH-dependent decomposition kinetic data, 37° C.) was 10.7. The compound also showed a half-life at 5 mM in series [4] of 0.417 h.
`CO/N=C(\C)C1(N(O)C(=O)OC)C(=O)N(c2ccccc2)N=C1C` (stereo not shown) [Compound 3, Methyl hydroxy(4-(1-(methoxyimino)ethyl)-3-methyl-5-oxo-1-phenyl-4,5-dihydro-1H-pyrazol-4-yl)carbamate] displayed a pKa in series [1] of 9.1. Besides, in series [2] (setting [6]), the “% HNO” value is 104^a %. For the same compound, the “decomposition (UV-VIS, in words)” value in series [3] was “decomposed slowly”. This compound showed a half-life at 5 mM in series [4] of 48 h.
